PubChem BioAssay (NCI)
Values joined by “and” are separate entries in the source; they are usually repeats but may differ in a detail not shown here. Equal values may be shown once.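 Each compound was tested at five concentrations against cells in 96-well plates for 48 hours. The concentration for 50% growth inhibition is given as GI50. The concentration for full growth arrest is given as TGI.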

Experiments:
Assay in all cases: growth of human tumour cells (NCI), 48 h
MOLT-4 leukemia = tested on: MOLT-4 leukemia
HCT-116 colon = tested on: HCT-116 colon
EKVX NSCLC = tested on: EKVX NSCLC
SNB-19 CNS = tested on: SNB-19 CNS
UACC-62 melanoma = tested on: UACC-62 melanoma
BT-549 breast = tested on: BT-549 breast
SNB-75 CNS = tested on: SNB-75 CNS
NCI-H226 lung = tested on: NCI-H226 lung
A498 renal = tested on: A498 renal
OVCAR-3 ovarian = tested on: OVCAR-3 ovarian

SMILES	GI50 (MOLT-4 leukemia)	TGI (MOLT-4 leukemia)	GI50 (HCT-116 colon)	TGI (HCT-116 colon)	GI50 (EKVX NSCLC)	TGI (EKVX NSCLC)	GI50 (SNB-19 CNS)	TGI (SNB-19 CNS)	GI50 (UACC-62 melanoma)	TGI (UACC-62 melanoma)	GI50 (BT-549 breast)	TGI (BT-549 breast)	GI50 (SNB-75 CNS)	TGI (SNB-75 CNS)	GI50 (NCI-H226 lung)	TGI (NCI-H226 lung)	GI50 (A498 renal)	TGI (A498 renal)	GI50 (OVCAR-3 ovarian)	TGI (OVCAR-3 ovarian)
CC(=O)Oc1ccc(C2(c3ccc(OC(C)=O)cc3)C(=O)Nc3ccccc32)cc1	16.3 µM and 28.3 µM	> 100 µM	34.1 µM and 25.8 µM	> 100 µM	8.49 µM and 22.4 µM	> 100 µM	42.9 µM and > 61.1 µM	> 100 µM	34.8 µM and 43.5 µM	> 100 µM	0.064 µM and 0.158 µM	0.524 µM and 0.733 µM	17.2 µM and 23.8 µM	59 µM and > 79.9 µM	> 100 µM	> 100 µM	24.6 µM and 26.8 µM	> 76.1 µM and 89.8 µM	81 nM and 131 nM	> 35.8 µM and 26 µM
C1=C2CNCC3=Cc4ccc5ccccc5c4OC23Oc2c1ccc1ccccc21	2.86 µM	10.6 µM	3.01 µM	13.1 µM	5.81 µM	34.1 µM	6.95 µM	29.3 µM	5.05 µM	21.7 µM	11.3 µM	40.7 µM	2.32 µM	11.5 µM	10.6 µM	27.6 µM	3.87 µM	17 µM	2340 nM	5.5 µM
O=C(O)C1C2C=CC(O2)C1C(=O)Nc1ncccn1 (centres undefined)	–	> 100 µM	–	> 100 µM	–	> 100 µM	–	> 100 µM	–	> 100 µM	–	> 100 µM	–	> 100 µM	–	> 100 µM	–	> 100 µM	–	> 100 µM
COc1ccc2cc(-c3c(-c4ccncc4)nc(-c4ccc(S(C)=O)cc4C)n3C)ccc2c1 (centres undefined)	17.4 µM	> 25 µM	17.9 µM	> 25 µM	8.34 µM	> 25 µM	> 25 µM	> 25 µM	13.8 µM	> 25 µM	> 21.9 µM	> 25 µM	> 20.8 µM	> 25 µM	> 20.5 µM	> 25 µM	8.32 µM	> 25 µM	14300 nM	> 25 µM
COc1cc([C@H]2c3[nH]c4ccccc4c3C[C@H]3COC(=O)N32)cc(OC)c1O	–	11.2 µM	–	51.2 µM	–	22.7 µM	–	> 100 µM	–	43.4 µM	–	> 100 µM	–	3.2 µM	–	28.5 µM	–	20.9 µM	–	–
Cn1cnc([N+](=O)[O-])c1Sc1nc(N)nc2nc[nH]c12	3.55 µM	> 100 µM	2.71 µM	> 100 µM	3.9 µM	> 100 µM	> 100 µM	> 100 µM	2.96 µM	25.7 µM	5.08 µM	> 100 µM	1.08 µM	> 100 µM	7.5 µM	> 100 µM	> 23.7 µM	> 100 µM	4650 nM	> 100 µM
NC(N)=N/N=C/c1c(-c2ccc(Cl)c([N+](=O)[O-])c2)nc2n1CCS2	3.4 µM	36 µM	1.62 µM	2.97 µM	12.7 µM	26.3 µM	4.67 µM	> 100 µM	1.64 µM	3.64 µM	21.5 µM	50.2 µM	16 µM	37.9 µM	4.24 µM	24 µM	18.3 µM	39.5 µM	1930 nM	3.91 µM
Cn1cc(CO)c2ccccc21	40 µM	> 100 µM	26.9 µM	> 100 µM	50.7 µM	> 100 µM	> 100 µM	> 100 µM	54.9 µM	> 100 µM	53.7 µM	> 100 µM	27.6 µM	> 100 µM	64.1 µM	> 100 µM	17.6 µM	73.1 µM	29500 nM	> 100 µM
COc1ccc(/C=C(/C(=O)n2cnnn2)c2cc(OC)c(OC)c(OC)c2)cc1	4.31 µM	> 100 µM	3.08 µM	> 100 µM	5.48 µM	> 100 µM	4.25 µM	> 100 µM	3.1 µM	> 100 µM	2.32 µM	7.57 µM	3.34 µM	> 100 µM	> 100 µM	> 100 µM	4.26 µM	> 100 µM	2370 nM	5.94 µM
CC[C@H](C)[C@H](NC(=O)[C@H]1CCCCN1C)C(=O)N(C)[C@H](C[C@@H](OC(C)=O)c1nc(C(=O)N[C@@H](Cc2ccccc2)C[C@H](C)C(=O)OC)cs1)C(C)C	0.00331 µM and 0.0025 µM	> 25 µM	0.000357 µM	–	0.000751 µM and 0.0025 µM	> 25 µM	0.000431 µM and 0.0025 µM	> 25 µM	–	> 25 µM	0.000385 µM and < 0.0025 µM	0.0169 µM and < 0.0025 µM	0.000335 µM and 0.0025 µM	–	0.00234 µM and < 0.0025 µM	< 0.0025 µM	0.000267 µM and < 0.0025 µM	< 0.0025 µM	0.0424 nM	0.0116 µM
Cc1n(Cc2ccc3ccccc3c2)c(Cl)c(Cl)[n+]1Cc1ccc2ccccc2c1	2.31 µM	5.58 µM	1.62 µM	3.28 µM	2.4 µM	8.01 µM	1.57 µM	2.96 µM	1.38 µM	2.74 µM	1.65 µM	3.17 µM	1.16 µM	2.66 µM	2.48 µM	6.97 µM	1.56 µM	4.57 µM	1440 nM	2.87 µM
C=C(CNCCc1ccc(O)cc1)[C@@H]1CC[C@]2(CO)CC[C@]3(C)[C@H](CC[C@@H]4[C@@]5(C)CCC(N)C(C)(C)[C@@H]5CC[C@]43C)[C@@H]12 (some centres undefined)	–	–	–	–	1.66 µM	3.36 µM	1.22 µM	2.53 µM	–	–	1.7 µM	3.53 µM	1.24 µM	2.49 µM	1.83 µM	3.78 µM	1.44 µM	2.79 µM	1650 nM	3.1 µM
O=c1[nH]c2cc(Cl)c(Cl)cc2n2cc3ccccc3c12	18.7 µM	36.7 µM	21 µM	35.3 µM	21.9 µM	43.5 µM	21.6 µM	56.6 µM	16.5 µM	30.1 µM	26.5 µM	57.2 µM	21.6 µM	53.3 µM	18.6 µM	35.9 µM	15.8 µM	29.9 µM	18400 nM	32.4 µM
CCN(CC)CCOc1ccc(/C=C2\CC3C4CC=C5C[C@@H](OC(C)=O)CC[C@]5(C)C4CC[C@]3(C)C2=O)cc1OC (some centres undefined)	1.45 µM	> 100 µM	1.92 µM	5.61 µM	16.7 µM	36.3 µM	47.1 µM	> 100 µM	2.2 µM	4.09 µM	11.4 µM	33 µM	20.5 µM	58.1 µM	13.3 µM	35.9 µM	3.01 µM	11.6 µM	1780 nM	3.45 µM
CN(C)C/C=C/C(=O)Nc1ccc(C(=O)N2CCC[C@@H](Nc3ncc(Cl)c(-c4c[nH]c5ccccc45)n3)C2)cc1	0.182 µM	3.55 µM	0.154 µM	10.6 µM	0.827 µM	7.5 µM	0.196 µM	11.1 µM	0.173 µM	0.445 µM	0.267 µM	1.22 µM	0.0978 µM	0.444 µM	0.365 µM	3.2 µM	0.192 µM	0.495 µM	64.4 nM	0.99 µM
COc1ccc(C(=O)C[C@]2(O)C(=O)Nc3c(Cl)ccc(Cl)c32)cc1	0.533 µM	> 100 µM	0.406 µM	24.6 µM	0.892 µM	> 100 µM	1.05 µM	> 100 µM	0.486 µM	> 100 µM	0.59 µM	> 72.9 µM	0.199 µM	0.972 µM	3.02 µM	> 100 µM	0.295 µM	1.52 µM	348 nM	7.19 µM
CN(C)C(=O)SC1=C(c2c(Cl)cccc2Cl)C(=O)c2ccccc21	2.5 µM	7.06 µM	1.75 µM	3.28 µM	17.4 µM	40.3 µM	15.8 µM	29.4 µM	3.85 µM	8.24 µM	9.78 µM	23.5 µM	7.94 µM	23.9 µM	19.9 µM	59.8 µM	16.1 µM	31.7 µM	1960 nM	3.8 µM
O=C(Nc1ccccc1O)c1ccc(CNC(=O)c2ccsc2Nc2ccnc(C(F)(F)F)c2)cc1	0.956 µM	9.48 µM	1.34 µM	3.36 µM	3.09 µM	14.5 µM	2.97 µM	13.2 µM	1.43 µM	4.83 µM	1.89 µM	5.04 µM	2.57 µM	43.5 µM	2.48 µM	30.9 µM	0.787 µM	3.01 µM	1850 nM	4.8 µM
O=C(CCN1CCCC1)Nc1ccc2c(Nc3ccccc3)c3ccccc3nc2c1	0.0432 µM	1.56 µM	0.611 µM	2.2 µM	1.41 µM	4.23 µM	0.432 µM	2.92 µM	1.12 µM	2.55 µM	1.5 µM	3.09 µM	1.09 µM	2.33 µM	1.18 µM	3.53 µM	0.864 µM	2.22 µM	1060 nM	3.27 µM
Cc1ccc(-n2c3c(c4c(CN5CCOCC5)c(O)ccc42)CCc2ccccc2C3=O)cc1	35.1 µM	> 100 µM	> 100 µM	> 100 µM	> 100 µM	> 100 µM	> 100 µM	> 100 µM	> 100 µM	> 100 µM	33.8 µM	> 100 µM	–	–	78.1 µM	> 100 µM	> 100 µM	> 100 µM	71200 nM	> 100 µM
Cc1cc(NC(=O)NC(=O)c2ccccc2N(C)C)ccc1Oc1ncc(Br)cn1	0.533 µM	39.7 µM	0.389 µM	50.2 µM	–	> 68.1 µM	0.749 µM	> 81.5 µM	–	> 100 µM	–	> 46.4 µM	0.11 µM	0.428 µM and 0.555 µM	1.88 µM	> 90 µM	–	6.71 µM	–	11.1 µM
Cc1ccc(/C=C2\CNC/C(=C\c3ccc(C)cc3)C2=O)cc1	1.81 µM	4.84 µM and 19.2 µM	0.202 µM	0.382 µM and 1.93 µM	2.85 µM	8.3 µM and 20.8 µM	1.93 µM	4.78 µM and 15 µM	–	4.36 µM	–	4.28 µM	8.74 µM	68.1 µM	–	4.85 µM and 4.96 µM	1.63 µM	3.36 µM and 3.56 µM	1270 nM	–
C[C@@H]1C/C=C\C(=O)O[C@H](/C=C/C#C/C=C/C(C)(C)[C@@H](O)c2cccc(O)c2Br)[C@@H](C)/C=C/[C@H](C)C[C@H](OC(N)=O)C1	0.034 µM	40.8 µM	0.0362 µM	12.5 µM	0.0716 µM	18.7 µM	1.66 µM	19.1 µM	0.0239 µM	0.0656 µM	0.0308 µM	18.2 µM	0.255 µM	21.2 µM	0.445 µM	19 µM	0.543 µM	18.7 µM	63.6 nM	15.7 µM
O=C(/C=C/c1cn(-c2ccccc2)nc1-c1ccc([N+](=O)[O-])cc1)c1ccc(Cl)cc1	1.27 µM	> 100 µM	2.42 µM	> 100 µM	> 22.3 µM	> 100 µM	4.12 µM	27 µM	6.01 µM	> 100 µM	3.13 µM	> 32.1 µM	1.65 µM	4.84 µM	–	> 100 µM	4.99 µM	> 100 µM	–	–
NC(=O)c1cc(I)ccc1NC(=O)COc1ccccc1	1.05 µM	> 78.4 µM	0.499 µM	16.1 µM	–	–	0.699 µM	44.1 µM	0.814 µM	> 100 µM	0.644 µM	31.5 µM	0.316 µM	4.49 µM	3.48 µM	> 100 µM	1.27 µM	7.26 µM	336 nM	1.35 µM
